According to patent publication US20170057910A1, “ANTITUMOR NAPHTHALENYL BENZAMIDE DERIVATIVES” (THE CLEVELAND CLINIC FOUNDATION, priority 2015, published 2017):
Entries after “also recorded” stand apart in the source; their conditions may differ.

Key:
refractory myeloma = settings: cited from earlier work
5TGM1-luc cells = test: Immunocompetent systemic mouse myeloma model (5TGM1-luc); type: in vivo; settings: for anti-MM activity in vivo (imaging, time to death or euthanasia): albumin-based solutions, CCF642 IV then IP 1-12 mg/kg, CCF1172 IP three times a week 22 then 44 mg/kg; for adverse events by clinical observations and weekly weight measurements: three times a week clinical observations, increasing doses
Procedure: C57BL/KaLwRij mice were injected with 4×10^6 5 TGM1-luc cells per mouse via the tail vein. The next day, treatments were started. Compounds were diluted from DMSO stock into aqueous bovine serum albumin (Sigma, cat. # A7030) solution, supplemented, after compound addition, with NaCl to a final NaCl concentration of 150 mM. In this pilot experiment we aimed to evaluate general tolerance and activity using increasing doses. CCF642 was given in 10% BSA IV twice a week for the first three weeks followed by IP three times a week. IV doses started with 1 mg/kg (3% DMSO) and increased by 1 mg/kg per week (6% DMSO in the second and 10% DMSO in the third week). IP doses started with 6 mg/kg in week 4 and from week 5 onwards used 12 mg/kg (10% DMSO in both). CCF1172 (obtained from SPECS) was given IP three times a week, 22 mg/kg in the first two weeks, then 44 mg/kg (10% BSA, 10% DMSO).

MM1.S-luc = test: Three organ system sandwich assay, MM luciferase activity; type: cell-based
Description: (§1) FIG. 1A, FIG. 1B, and FIG. 1C provide a scheme showing a sandwich three organ system assay, structures of lead compounds, and a graph of cell viability. Development of the three organ system sandwich assay yields structurally distinct promising anti-myeloma compounds. (a) To address the objective of identifying new clinically translatable treatments for the incurable cancer multiple myeloma (MM) that disrupt critical programs for this malignancy while sparing normal bone marrow, the inventors submitted hits from a mechanistically unbiased primary anti-MM screen to tests that modeled key components of the in vivo situation, initially separately, then in one multi-layered sandwich assay, followed by assessment of anti-MM activity in a panel of genetically heterogeneous MM cell lines.
(§2) Sandwich assay: HS-5 bone marrow stromal cells which secrete hematopoietic growth factors including multiple myeloma (MM) supporting IL-6 are grown to confluence on Transwell™ inserts before firefly luciferase expressing MM1.S cells are added and incubated overnight. […] Three to four days later MM luciferase activity is measured and viability of NL BM, constantly drug exposed for maximal stringency, is assessed by trypan blue exclusion using Vicell™ flow.

lymphoma cell lines = test: Activity in lymphoma cell lines; type: cell-based; settings: 6 of 7 lymphoma cell lines
Description: Cell lines: Multiple myeloma cell lines MM1.S, MM1.R, NCI-H929 were obtained from ATCC. MM cell lines KMS-12-PE and KMS-12-BM were from the JCRB, JJN-3 from DSMZ, and 5TGM1-luc cells were from Dr. Yoneda at the University of Texas Health Science at San Antonio. HRMM.09 cells were generated in the inventor's lab from a patient who developed refractory myeloma after treatment with steroids, IMiD, proteasome inhibitors, DNA alkylators, and anthracyclines. MM1.S-luc and HRMM.09-luc were generated in the inventor's laboratory by transduction with Cignal™ firefly luciferase control lentivirus obtained from Qiagen™ Lymphoma cells were generated by Mitchell Smith. All MM and lymphoma cells were grown in RPMI 1640 (NaCl 103.45 mM, NaCO3 23.81 mM, Na2HPO4 5.63 mM, KCl 5.33 mM, Ca(NO3)2 4H2O 0.424 mM, MgSO4 0.407 mM, pH around 7.2), supplemented with 10% fetal bovine serum, penicillin G (50 units ml^−1), and streptomycin (50 μM ml^−1). HS-5 cells were grown in appropriate cell culture media. Normal bone marrow cells were obtained from discarded bags of bone marrow grafts from healthy donors and either kept in RPMI with 25% (v/v) HS-5 supernatant for up to 14 days for isolated cytotoxicity assays or frozen and thawed for the sandwich assay. All cells were cultured at 37° C., 5% CO2 in humidified air. […]

MM cell lines = test: Anti-MM activity in a panel of genetically heterogeneous MM cell lines; type: cell-based
Description: Cell lines: Multiple myeloma cell lines MM1.S, MM1.R, NCI-H929 were obtained from ATCC. MM cell lines KMS-12-PE and KMS-12-BM were from the JCRB, JJN-3 from DSMZ, and 5TGM1-luc cells were from Dr. Yoneda at the University of Texas Health Science at San Antonio. HRMM.09 cells were generated in the inventor's lab from a patient who developed refractory myeloma after treatment with steroids, IMiD, proteasome inhibitors, DNA alkylators, and anthracyclines. MM1.S-luc and HRMM.09-luc were generated in the inventor's laboratory by transduction with Cignal™ firefly luciferase control lentivirus obtained from Qiagen™ Lymphoma cells were generated by Mitchell Smith. All MM and lymphoma cells were grown in RPMI 1640 (NaCl 103.45 mM, NaCO3 23.81 mM, Na2HPO4 5.63 mM, KCl 5.33 mM, Ca(NO3)2 4H2O 0.424 mM, MgSO4 0.407 mM, pH around 7.2), supplemented with 10% fetal bovine serum, penicillin G (50 units ml^−1), and streptomycin (50 μM ml^−1). HS-5 cells were grown in appropriate cell culture media. Normal bone marrow cells were obtained from discarded bags of bone marrow grafts from healthy donors and either kept in RPMI with 25% (v/v) HS-5 supernatant for up to 14 days for isolated cytotoxicity assays or frozen and thawed for the sandwich assay. All cells were cultured at 37° C., 5% CO2 in humidified air.
Taking a mechanistically unbiased approach to drug discovery the inventors developed a sandwich assay that selected anti-MM compounds from a primary ATP-based 30,000 small molecule screen for lack of toxicity on normal bone marrow, stability towards liver enzymes, and activity in the context of cell barriers, bone marrow stromal support, and short, kidney-clearance-like exposure. CCF1172 emerged as one of three promising compounds and had sub-μM IC50 potency in all 8 MM cells tested and 6 of 7 lymphoma cell lines.

[1] = Three organ system sandwich assay, normal bone marrow viability by trypan blue exclusion; type: cell-based; settings: human, read-out: reduction of viable NLBM cells
Description: as §1, §2

Row | Compound | overall response rate (refractory myeloma; single agent, refractory myeloma patients) | survival relative to expected survival (refractory myeloma; two phase studies, patients with refractory myeloma) | anti-MM activity in vivo (imaging, time to death or euthanasia) (5TGM1-luc cells) | adverse events by clinical observations and weekly weight measurements (5TGM1-luc cells) | effectiveness in the sandwich assay compared with CCF642 and CCF1118 (MM1.S-luc) | reduction of MM1.S-luc luminescence (MM1.S-luc; 15 μM) | IC50 potency in lymphoma cell lines (lymphoma cell lines) | potency in the MM cell line panel compared with CCF642 and CCF1118 (MM cell lines; MM cell line panel) | IC50 potency in MM cells (MM cell lines; all 8 MM cells tested) | activity against genetically heterogenous MM cell lines (MM cell lines; seven MM cell lines) | cytotoxicity at 15 μM [1] [%]
1 | Daratumumab: the first anti-CD38 antibody for use in myeloma | about 30% | over twice of expected survival | – | – | – | – | – | – | – | – | –
2 | COc1ccc(N2C(=O)/C(=C\c3ccc([N+](=O)[O-])s3)SC2=S)cc1 [CCF642, reference compound] | – | – | had anti-MM activity | No obvious adverse events | – | – | – | – | – | – | –
3 | O=C(Nc1cccc2ccccc12)c1cc(Cl)ccc1O [CCF1172] | – | – | demonstrated in vivo activity; also recorded: had anti-MM activity | No obvious adverse events | equally effective | 70-80% | sub-μM | less potent | sub-μM | uniform activity | < 30
